In paper PMC3419223, “Transient Receptor Potential Ankyrin 1 Channel Localized to Non-Neuronal Airway Cells Promotes Non-Neurogenic Inflammation” (PLoS ONE, 2012):
Ends that are not written are not given here.

What was measured:
[1] = system: C57BL/6 mouse trachea and bronchi; assay: Plasma protein extravasation (Evans blue dye) after intratracheal instillation; type: in vivo; details: C57BL/6 mice; for plasma protein extravasation (PPE) after instillation into the tracheal lumen: i.t. 30 µl, acrolein 5 mM, CSE 1 OD, capsaicin 100 µM, SP 25 nM; for effect on SP (25 nM)- and capsaicin (100 µM)-evoked Evans blue dye extravasation (PPE): capsazepine 30 mg/kg i.p., HC-030031 300 mg/kg i.g.
Procedure: (§1) To defunctionalize/desensitize TRPV1 expressing primary sensory neurons, resiniferatoxin (RTX) was administered to C57BL/6 mice, as previously described, [40]. Briefly, mice were treated subcutaneously (s.c.) with a single injection of RTX (50 µg/kg) or its vehicle (10% ethanol and 10% tween 80 in isotonic saline) into the scruff of the neck under a light ether anesthesia to avoid unnecessary pain. Experiments were carried out 7 days after RTX treatment when responses to both TRPV1 and TRPA1 agonists in the treated mice were abolished, [40].
Anesthetized (sodium pentobarbital, 50 mg/kg i.p.) C57BL/6 mice received Evans blue dye (30 mg/kg i.v.), 1 min before intratracheal (i.t) instillation (30 µl) of acrolein (5 mM), capsaicin (100 µM), SP (25 nM), CSE (1 OD) or their vehicles (isotonic saline, 1% ethanol in isotonic saline and isotonic saline). […] The tachykinin NK1 receptor antagonist, L-733,060 (2 µmol/kg i.v.; Tocris) or its vehicle were administered 15 min before the stimulus. The TRPV1 selective antagonist, capsazepine, (30 mg/kg i.p.) or its vehicle (2.5% DMSO in isotonic saline) and intragastric (i.g.) TRPA1 selective antagonist, HC-030031 (300 mg/kg i.g.) or its vehicle were administered 30 and 60 min before the stimulus, respectively. In another set of experiments ACR (5 mM, i.t.), or its vehicle, has been administered in C57BL/6 mice desensitized to RTX (50 µg/kg; s.c.). Animals were euthanized 15 min after treatment and transcardially perfused with 0.9% isotonic saline solution. The extravasated dye was extracted from mouse trachea and bronchi by overnight incubation in formamide and assayed by spectrophotometry at 620 nm, as reported previously.

[2] = system: C57BL/6 mice, Trpa1+/+ or Trpa1-/- mice; assay: KC (CXCL-1) release in bronchoalveolar lavage fluid, ELISA; type: in vivo, mouse; details: for KC in BAL 24 hours after intratracheal instillation: i.t. 30 µl, acrolein 5 mM, CSE 1 OD, capsaicin 100 µM, SP 25 nM
Procedure: as §1
Trpa1^+/+ or Trpa1^−/− B6129P mice (5 per group) were exposed acutely to the cigarette smoke (CS) produced with commercial cigarettes (Marlboro Red, 12 mg of tar, 0.9 mg of nicotine each), by using a “nose-only” exposure unit. The smoke produced by cigarette burning was introduced into the exposure chamber (inner volume = 11.61 l) with the airflow generated by a mechanical ventilator (7025 Rodent Ventilator, Ugo Basile) at a rate of 250 ml/min [58]. A second mechanical ventilator was used to provide room air for dilution (1∶8) of the smoke stream. Mice were exposed to the smoke of 5 cigarettes per exposure period, twice daily, for 3 consecutive days, and sacrificed 24 hours later. Genotype-, age-, strain- and sex-matched control animals were exposed to air only in the same manner for the same duration of time. Anesthetized C57BL/6, and Trpa1^+/+ or Trpa1^−/− (C57BL/6) mice were intratracheally administered with (30 µl) acrolein (5 mM), capsaicin (100 µM), SP (25 nM) and CSE (1 OD) or their vehicles (isotonic saline, 1% ethanol in isotonic saline and isotonic saline) and sacrificed 24 hours later. The NK1 receptor antagonist, L-733,060 (2 µmol/kg i.v.; Tocris) or its vehicle (isotonic saline) were administered 15 min before the stimulus, and i.g. HC-030031 (300 mg/kg) or its vehicle (0.5% CMC in isotonic saline 0.9%) were administered 1 hour before the stimulus. In another set of experiments ACR (5 mM, i.t.), or its vehicle, has been administered in C57BL/6 mice desensitized to RTX (50 µg/kg; s.c.). Animals were sacrificed 24 hours after the last exposure/treatment with an overdose of anesthetic followed by exsanguination, and the lungs were lavaged using a cannula inserted into the trachea and instilling 1 ml of Hank's Buffer added with HEPES 10 mM and EDTA 10 mM three times. […] BAL were centrifuged at 200× g at 4°C for 10 min, and the cell-free supernatants were stored at −80°C for cytokine determination. Frozen cell-free BAL was analyzed for keratinocyte chemoattractant (CXCL-1/KC, the murine analogue of IL-8) release by using a commercial ELISA-assay (Invitrogen).

TRPA1 = target: T1, TRPA1 (Homo sapiens, UniProt O75762); assay: Calcium imaging (Fura-2) of TRPA1 agonist responses in human airway/lung cells; type: cell-based; details: for EC50: intracellular calcium response
T1 construct: cultured human airway cells, including fibroblasts, epithelial and smooth muscle cells express functional TRPA1 channels; endogenous in cells; host or cells: SAEC, NHLF, HBSMC (Lonza, primary); A549, IMR90 (ATCC)
T1 sequence (O75762 whole entry): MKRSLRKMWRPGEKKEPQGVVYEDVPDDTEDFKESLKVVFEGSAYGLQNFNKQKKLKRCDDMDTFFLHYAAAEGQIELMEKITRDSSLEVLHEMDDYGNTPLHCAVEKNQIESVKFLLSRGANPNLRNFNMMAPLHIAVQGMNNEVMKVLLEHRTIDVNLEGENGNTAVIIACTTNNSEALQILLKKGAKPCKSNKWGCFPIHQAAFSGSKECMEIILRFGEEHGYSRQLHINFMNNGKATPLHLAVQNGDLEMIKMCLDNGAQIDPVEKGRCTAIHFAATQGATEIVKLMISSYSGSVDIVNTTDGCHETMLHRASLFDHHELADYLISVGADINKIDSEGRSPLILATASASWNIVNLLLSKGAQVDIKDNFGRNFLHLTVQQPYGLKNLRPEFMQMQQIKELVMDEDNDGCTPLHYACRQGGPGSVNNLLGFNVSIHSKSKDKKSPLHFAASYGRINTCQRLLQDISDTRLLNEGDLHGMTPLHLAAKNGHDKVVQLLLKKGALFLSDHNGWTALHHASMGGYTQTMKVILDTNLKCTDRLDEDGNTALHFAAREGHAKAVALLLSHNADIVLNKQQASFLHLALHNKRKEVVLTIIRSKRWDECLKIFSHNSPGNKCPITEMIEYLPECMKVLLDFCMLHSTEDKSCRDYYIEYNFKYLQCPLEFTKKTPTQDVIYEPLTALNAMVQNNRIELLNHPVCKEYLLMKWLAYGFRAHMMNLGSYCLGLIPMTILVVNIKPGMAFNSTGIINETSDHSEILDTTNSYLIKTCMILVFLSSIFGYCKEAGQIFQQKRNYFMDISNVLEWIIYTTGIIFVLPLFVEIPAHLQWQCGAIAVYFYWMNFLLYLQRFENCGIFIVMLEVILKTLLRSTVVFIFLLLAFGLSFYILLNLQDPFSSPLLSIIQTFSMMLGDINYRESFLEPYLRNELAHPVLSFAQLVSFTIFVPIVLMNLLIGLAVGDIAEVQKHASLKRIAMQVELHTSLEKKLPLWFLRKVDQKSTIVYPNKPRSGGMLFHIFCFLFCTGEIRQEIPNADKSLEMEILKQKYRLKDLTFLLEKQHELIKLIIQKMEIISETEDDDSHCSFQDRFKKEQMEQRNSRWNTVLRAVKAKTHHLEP
Procedure: Human small airway epithelial cells (SAEC), normal human lung fibroblasts (NHLF) and human bronchial smooth muscle cells (HBSMC) were purchased from Lonza. Human alveolar type II epithelium-like adherent cell line (A549) and human lung embryonic fibroblast (IMR90) were purchased from American Type Culture Collection (Manassas, VA). SAEC and NHLF were cultured respectively in SAGM and FBM medium (Lonza) according to the manufacturer's instructions. IMR90 and HBSMC were cultured in DMEM supplemented with 10% FBS, 2 mM glutamine, 100 U penicillin and 100 µg/ml streptomycin (Sigma-Aldrich), and A549 were cultured in RPMI supplemented with 10% FBS, 2 mM glutamine, 100 U penicillin, 100 µg/ml streptomycin and 1 mM HEPES (Sigma-Aldrich). All cells were cultured in an atmosphere of 95% air and 5% CO2 at 37°C.
CSE was generated as previously reported. Briefly, aqueous CSE was obtained from the combustion of four cigarettes (Marlboro Red, 12 mg of tar, 0.9 mg of nicotine each) bubbled through 50 ml of buffer and subsequently filtered through a 0.2-µm pore filter (Millipore). To ensure reproducibility among different CSE batches, the absorbance (optical density; OD) measured at 320 nm was used as a measure of the “strength” of the extract. Dilutions were made with buffer to obtain the desired absorbance. The CSE was freshly prepared on the day of the experiment and used immediately after preparation.
(§2) For calcium fluorescence measurements, cells were incubated with 5 µM Fura-2AM ester (Alexis Biochemicals) for 40 minutes at 37°C. Intracellular calcium levels were measured and recorded with a dynamic image analysis system (Laboratory Automation 2.0; RC Software). Fluorescence was measured during excitation at 340 and 380 nm, and after correction for the individual background fluorescence signals, the ratio of the fluorescence at both excitation wavelengths (Ratio340/380) was monitored. Experiments were performed using buffer solution containing (in mM): 150 NaCl, 6 KCl, 1 MgCl2, 1.5 CaCl2, 10 glucose, 10 HEPES at pH 7.4. Cells were stimulated with cinnamaldehyde (0.1–3000 µM), acrolein (0.1–3000 µM), CSE (0.001–0.5 OD), capsaicin (1 µM) and the activating peptide (SLIGKV-NH2) of the human PAR-2 receptor (hPAR-2 AP; 100 µM), or their respective vehicles (0.3% DMSO,aqueous buffer or 1% ethanol). HC-030031 and AP18 vehicles (used in all the in vitro experiments) were 3% DMSO and 1% DMSO, respectively. Results are expressed as the increase of Ratio340/380 over the baseline normalized to the maximum effect induced by ionomycin (5 µM) added at the end of the experiment.

[3] = system: IL-8 release from SAEC, NHLF and HBSMC; assay: IL-8 release from human airway/lung cells in primary culture, ELISA; type: cell-based; details: for IL-8 release: overnight exposure
Procedure: For IL-8 ELISA assays, HBSMC, SAEC, and NHLF were seeded in complete culture medium in 48-well plates, grown to ∼80–90% confluence, and incubated overnight in serum-free medium before treatments. All the treatments were performed in serum free medium. Cells were pretreated with the selective TRPA1 antagonists, HC-030031 and AP18, or their vehicles, for 30–60 min before treatment with freshly prepared acrolein, CSE, TNF-α and IL-1β for 18 hours at 37°C with 5% CO2. Subsequently, supernatants were collected and stored at −80°C for ELISA assay. Human IL-8 was measured using a paired antibody quantitative ELISA kit (Invitrogen) (detection limit: 5 pg/ml). The assays were performed according to the manufacturer's instructions. Vitality assay method (MTT reduction assay) is available online as (Text S1).

PAR-2 receptor = target: T2, PAR-2 receptor (Homo sapiens, UniProt P55085); assay: Calcium imaging, response to the PAR-2 activating peptide (selectivity control); type: cell-based; details: PAR-2 AP 100 µM; antagonist 10 µM
T2 construct: endogenous in cells
T2 sequence (P55085 26-397): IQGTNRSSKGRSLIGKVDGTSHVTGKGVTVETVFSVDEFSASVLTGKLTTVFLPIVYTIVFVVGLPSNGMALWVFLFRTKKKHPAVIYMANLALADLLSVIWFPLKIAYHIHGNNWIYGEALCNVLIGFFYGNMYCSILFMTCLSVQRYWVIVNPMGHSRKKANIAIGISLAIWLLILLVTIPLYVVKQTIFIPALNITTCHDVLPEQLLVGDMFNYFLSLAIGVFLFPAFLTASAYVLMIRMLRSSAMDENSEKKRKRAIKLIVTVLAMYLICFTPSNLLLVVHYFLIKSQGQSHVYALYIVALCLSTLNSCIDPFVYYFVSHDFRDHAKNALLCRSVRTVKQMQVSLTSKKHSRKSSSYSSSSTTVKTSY
Procedure: as §2

TRPV1 = assay: Calcium imaging, response to the TRPV1 agonist capsaicin in human airway/lung cells; type: cell-based; details: 1 µM; SAEC, A549, NHLF, IMR90 and HBSMC; data not shown

## C=C(C)[C@]12C[C@@H](C)[C@@]34O[C@](Cc5ccccc5)(O[C@@H]1[C@@H]3C=C(COC(=O)Cc1ccc(O)c(OC)c1)C[C@]1(O)C(=O)C(C)=C[C@@H]41)O2 [RTX, resiniferatoxin]
[1]; RTX 50 µg/kg s.c., 7 days before, ACR 5 mM i.t.
  acrolein-induced PPE after desensitization: completely abolished
[2]; RTX 50 µg/kg s.c., 7 days before, ACR 5 mM i.t., C57BL/6 mice
  acrolein-induced increase in KC in BAL fluid after desensitization: remained unchanged

## O=C/C=C/c1ccccc1 [Cinnamaldehyde, cinnamaldehyde]
TRPA1; A549
  EC50: 10.9 µM
TRPA1; HBSMC
  EC50: 6.7 µM
TRPA1; IMR90
  EC50: 2.7 µM
TRPA1; NHLF
  EC50: 6.6 µM
TRPA1; SAEC
  EC50: 46.3 µM
[3]
  IL-8 release: release IL-8

## CC(=C\c1ccc(Cl)cc1)/C(C)=N/O [AP18]
TRPA1; A549 and IMR90, antagonist 10 µM
  effect of antagonist on calcium response evoked by CNM, ACR or CSE: abolished
TRPA1; SAEC, NHLF, HBSMC, antagonist 10 µM
  effect of antagonist on calcium responses to CNM, ACR and CSE: prevented
PAR-2 receptor
  effect of antagonist on calcium response to the PAR-2 activating peptide: did not affect
[3]; HC-030031 30 µM, AP18 10 µM
  effect of antagonist on CSE-evoked IL-8 release: reduced
  effect of antagonist on IL-8 release induced by IL-1β or TNF-α: not affected
  effect of antagonist on acrolein-evoked IL-8 release: significantly reduced

## substance P (RPKPQQFFGLM-NH2; ends and bridges not checked; UniProt P20366 58-68, looked up) [SP, neuropeptide tachykinin released from sensory nerve terminals]
[1]
  plasma protein extravasation (PPE) after instillation into the tracheal lumen: increased PPE
[2]; C57BL/6 mice
  KC in BAL 24 hours after intratracheal instillation: failed to increase

## COc1cc(CNC(=O)CCCC/C=C/C(C)C)ccc1O [capsaicin]
TRPV1
  calcium response: failed to produce any visible calcium response
[1]
  plasma protein extravasation (PPE) after instillation into the tracheal lumen: increased PPE
[2]; C57BL/6 mice
  KC in BAL 24 hours after intratracheal instillation: failed to increase

## FC(F)(F)c1cc(CO[C@H]2CCCN[C@H]2c2ccccc2)cc(C(F)(F)F)c1 [L-733,060]
[1]; L-733,060 2 µmol/kg i.v., CPZ 30 mg/kg i.p., HC 300 mg/kg i.g.
  effect on acrolein (5 mM, i.t.)- and CSE (1 OD, i.t.)-evoked increase in PPE: prevent
[1]; L-733,060 2 µmol/kg i.v.
  effect on SP (25 nM)- and capsaicin (100 µM)-evoked Evans blue dye extravasation (PPE): prevented
[2]; HC-030031 300 mg/kg i.g., L-733,060 2 µmol/kg i.v., C57BL/6 mice
  effect of pretreatment on KC release evoked by acrolein or CSE: failed to reduce

## C=CC=O [Acrolein, acrolein]
TRPA1; A549
  EC50: 7.3 µM
TRPA1; HBSMC
  EC50: 6.3 µM
TRPA1; IMR90
  EC50: 2.9 µM
TRPA1; NHLF
  EC50: 4.4 µM
TRPA1; SAEC
  EC50: 56.9 µM
[1]
  plasma protein extravasation (PPE) after instillation into the tracheal lumen: increased PPE
[2]; 5 mM i.t., Trpa1-/- mice (C57BL/6)
  KC release in Trpa1-/- mice: completely absent
[2]; C57BL/6 mice
  KC in BAL 24 hours after intratracheal instillation: significantly increased
[3]
  IL-8 release: concentration-dependent IL-8 release

## Oc1cc2c(cc1O)CN(C(=S)NCCc1ccc(Cl)cc1)CCC2 [capsazepine]
[1]; L-733,060 2 µmol/kg i.v.
  effect on SP (25 nM)- and capsaicin (100 µM)-evoked Evans blue dye extravasation (PPE): prevented
